Patent US20120028917A1, “Use Of N-(4-((3-(2-Amino-4-Pyrimidinyl)-2-Pyridinyl)Oxy)Phenyl)-4-(4-Methyl-2-Thienyl)-1-Phthalazinamine In The Treatment Of Antimitotic Agent Resistant Cancer” (Amgen Inc., priority 2009, published 2012)
Marks after values point to notes of the source that are not given here.

How the values were obtained:
Assay in all cases: Xenograft tumor growth inhibition (Example 7)
Format in all cases: in vivo, mice
[1] = tested on: MDA-MB-231 xenograft; conditions: MDA-MB-231, Breast; oral 15 mg/kg b.i.d. 2 consecutive days per week or 3 mg/kg b.i.d. every day, 3 weeks
Experimental: (§1) The in-vivo effect of AMG 900 on tumor growth was further evaluated in a panel of human xenografts from five different tumor types (breast, colon, lung, pancreatic, and uterine), including three MDR xenograft models. Mice bearing established tumors were orally administered AMG 900 at 15 mg/kg b.i.d. for 2 consecutive days per week for 3 weeks or at 3 mg/kg b.i.d. every day for 3 weeks. The maximum percentage of tumor growth inhibition (TGI) is reported, in Table 7 below, for each xenograft model. The percentage of TGI was calculated as the difference between the change in vehicle-treated control and AMG 900-treated tumor volumes during the study period.

[2] = tested on: HCT-15 (MDR) xenograft; conditions: Colon, oral 15 mg/kg b.i.d. 2 consecutive days per week or 3 mg/kg b.i.d. every day, 3 weeks
Experimental: as §1

[3] = tested on: NCI-H460 xenograft; conditions: NCI-H460, Lung; oral 15 mg/kg b.i.d. 2 consecutive days per week or 3 mg/kg b.i.d. every day, 3 weeks
Experimental: as §1

[4] = tested on: MiaPaCa2 xenograft; conditions: MiaPaCa2, Pancreas; oral 15 mg/kg b.i.d. 2 consecutive days per week or 3 mg/kg b.i.d. every day, 3 weeks
Experimental: as §1

## Cc1csc(-c2nnc(Nc3ccc(Oc4ncccc4-c4ccnc(N)n4)cc3)c3ccccc23)c1 [AMG 900, N-(4-((3-(2-amino-4-pyrimidinyl)-2-pyridinyl)oxy)phenyl)-4-(4-methyl-2-thienyl)-1-phthalazinamine]
[1]
  Maximum TGI (%): 82** %
[2]
  Maximum TGI (%): 50* %
[3]
  Maximum TGI (%): 85** %
[4]
  Maximum TGI (%): 60** %
